Experiments:
[1] = system: MMP-9; assay: Substrate phage display with NGS: relative probability (RP) of P3-P1' tetramer clusters; type: biochemical, human; settings: MMP9; RP of the substrate's P3-P1' tetramer, substrate phage display with NGS;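 note: ratio of tetramer probability after protease selection to that in naive phage library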
[2] = molecular target: T1, MMP-2 (Homo sapiens, UniProt P08253); assay: K(obs) of individual phage substrates (set of 1369); type: biochemical; settings: MMP2; individual phage substrate from the set of 1369 peptides; hyphen in the sequence marks the cleavage position
T1 sequence (P08253 110-660): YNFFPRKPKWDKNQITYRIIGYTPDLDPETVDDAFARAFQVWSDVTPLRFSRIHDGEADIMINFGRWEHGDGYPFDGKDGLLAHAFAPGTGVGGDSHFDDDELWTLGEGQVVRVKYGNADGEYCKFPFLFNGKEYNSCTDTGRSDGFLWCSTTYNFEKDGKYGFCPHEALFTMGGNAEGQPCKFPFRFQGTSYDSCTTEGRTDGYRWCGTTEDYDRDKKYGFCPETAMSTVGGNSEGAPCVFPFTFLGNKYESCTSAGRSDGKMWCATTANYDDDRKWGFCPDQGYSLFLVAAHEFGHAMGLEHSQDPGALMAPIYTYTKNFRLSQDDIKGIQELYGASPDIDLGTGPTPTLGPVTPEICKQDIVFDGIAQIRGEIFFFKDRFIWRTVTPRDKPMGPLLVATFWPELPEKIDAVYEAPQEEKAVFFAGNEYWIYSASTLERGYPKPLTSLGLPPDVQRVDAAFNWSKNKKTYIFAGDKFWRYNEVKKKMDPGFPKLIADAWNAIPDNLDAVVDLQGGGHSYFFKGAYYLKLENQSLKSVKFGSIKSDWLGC

[3] = molecular target: MMP-9 (Homo sapiens, UniProt P14780); assay: as above; type: biochemical; settings: MMP9; individual phage substrate of the set of 1369 peptides; dash in sequence marks cleavage position
MMP-9 (Homo sapiens, UniProt P14780), sequence (P14780 94-707): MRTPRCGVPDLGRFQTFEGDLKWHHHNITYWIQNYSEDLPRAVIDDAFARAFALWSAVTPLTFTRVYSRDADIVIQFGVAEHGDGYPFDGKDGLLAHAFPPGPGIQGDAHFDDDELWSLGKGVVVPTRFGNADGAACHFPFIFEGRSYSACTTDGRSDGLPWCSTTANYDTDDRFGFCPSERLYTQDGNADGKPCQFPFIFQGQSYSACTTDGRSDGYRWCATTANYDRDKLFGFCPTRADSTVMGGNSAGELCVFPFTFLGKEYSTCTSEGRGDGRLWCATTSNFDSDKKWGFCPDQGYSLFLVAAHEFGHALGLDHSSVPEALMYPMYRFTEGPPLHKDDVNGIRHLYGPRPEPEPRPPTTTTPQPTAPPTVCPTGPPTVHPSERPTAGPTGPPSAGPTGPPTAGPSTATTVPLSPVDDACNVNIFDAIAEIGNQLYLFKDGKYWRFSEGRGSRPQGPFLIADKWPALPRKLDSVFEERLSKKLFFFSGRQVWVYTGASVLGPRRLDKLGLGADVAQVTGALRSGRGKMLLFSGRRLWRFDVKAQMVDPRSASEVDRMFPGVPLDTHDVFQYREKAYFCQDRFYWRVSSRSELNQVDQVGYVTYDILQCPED

Substance | Kobs [2] [M⁻¹ s⁻¹] | Kobs [3] [M⁻¹ s⁻¹] | relative probability (RP) [1]
RQPFL-LTASG | 1154.21 | 12792.1 | 33.1122
SGPKL-LTASG | 5090.5 | 12792.1 | 35.7561
RLPYP-LTASG | 12792.1 | 12792.1 | 48.6636
NRPSW-VTASG | 9740.44 | 12792.1 | 29.0809
YASIR-TASGA | 12792.1 | 2545.25 | 0.562
SGVKW-LMSTA | 4335.13 | 12792.1 | 39.0108
PCPTG-LTASG | 8321.48 | 3253.29 | 39.8897
SGVRG-MHGTA | 1610.61 | 5667.28 | 38.9419
GRATA-LYTAS | 4082.43 | 1283.43 | 15.5991
MGPWG-MTASG | 4335.13 | 12792.1 | 49.8335
FKAVA-LTASG | 12792.1 | 12792.1 | 32.1946
RHPSH-FTASG | 12792.1 | 6688.74 | 26.7767
ESIRH-LTASG | 12792.1 | 5667.28 | 35.7683
VEAVA-ITASG | 5090.5 | 4922.1 | 21.5568

Further lines, with some results ahead:

Kobs [2] [M⁻¹ s⁻¹] | Kobs [3] [M⁻¹ s⁻¹] | Substance | relative probability (RP) [1]
2038.8 | 9740.44 | RVPVP-MTASG | 46.3561
5090.5 | 1561.44 | GWIAT-LRTAS | 0.199
0 | 5461.43 | SNPFK-YTASG | 32.6605
12792.1 | 12792.1 | NSPMS-LTASG | 47.1282
484.315 | 2687.73 | KRVYL-LTASG | 2.817
12792.1 | 690.17 | TSPGL-LTASG | 19.6268
3438.54 | 12792.1 | SGVWN-LMSTA | 38.922
12792.1 | 12792.1 | RAPVA-FTASG | 39.0112
0 | 1239.69 | YIPLV-YTASG | 9.417
12792.1 | 12792.1 | AMPKH-LTASG | 46.5072
1981.53 | 12792.1 | SGPKF-LVMTA | 42.7484
12792.1 | 585.336 | PTLQY-LTASG | 2.48
12792.1 | 12792.1 | GVPRY-LRTAS | 44.5304
1154.21 | 1154.21 | SGPVH-MWNTA | 35.975
7386.83 | 12792.1 | PTPRS-YTASG | 44.546
